Experimental findings from US8975264B2, “Compound acting as a cannabinoid receptor-1 inhibitor” (Amorepacific Corporation, priority 2010, dated 2015) are described below.

pIC50: −log10 of the molar value.

human CB1 (cannabinoid receptor 1), sequence (P21554 whole entry): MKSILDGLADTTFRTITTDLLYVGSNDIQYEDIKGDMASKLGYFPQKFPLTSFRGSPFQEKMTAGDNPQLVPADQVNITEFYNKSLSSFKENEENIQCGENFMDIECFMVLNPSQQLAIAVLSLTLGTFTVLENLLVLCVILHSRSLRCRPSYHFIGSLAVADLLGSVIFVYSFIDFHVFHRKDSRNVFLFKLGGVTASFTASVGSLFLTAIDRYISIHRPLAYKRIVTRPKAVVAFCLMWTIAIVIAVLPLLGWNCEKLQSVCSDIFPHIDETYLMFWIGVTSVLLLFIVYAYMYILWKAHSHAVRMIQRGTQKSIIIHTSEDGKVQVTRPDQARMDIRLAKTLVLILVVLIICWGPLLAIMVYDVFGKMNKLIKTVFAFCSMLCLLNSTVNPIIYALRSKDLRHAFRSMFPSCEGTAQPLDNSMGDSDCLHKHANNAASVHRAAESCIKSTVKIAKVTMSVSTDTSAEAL

For one assay, the target named is human CB1 (cannabinoid receptor 1) (Homo sapiens, UniProt P21554). Kind of assay: CB1 receptor inhibition effect: calcium ion influx assay (Fluo-4 NW) in Chem-1 cells after 1 μM R-(+)-WIN55212-2. The conditions noted are these: Chem-1 cells stably expressing human CB1; agonist 1 μM R-(+)-WIN55212-2; compared with Examples 5 and 222. The format is cell-based. Summed up:
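Chem-1 cells stably expressing human CB1 were exposed to compound (0.5% DMSO) for 10 minutes in HBSS/HEPES/probenecid, then stimulated with 1 μM R-(+)-WIN55212-2. Fluo-4 calcium flux was recorded for 80 s. Percent inhibition was calculated from max−min RFU relative to agonist-only and blank wells.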
Take `COCc1nn2c(-c3ccc(F)cc3)cc(N3CCC[C@@H]3CO)nc2c1-c1ccc(OC)cc1` [Example 306]: the “CB1 receptor inhibition effect, (R)-isomers compared with (S)-isomers” value was “lower CB1 receptor inhibition effect than the compounds of Examples 5 and 222”.

The same assay, now with this note: calcium ion influx in Chem-1 cells expressing human CB1, 1 μM R-(+)-WIN55212-2.
As to `COCc1nn2c(-c3cccc(C(F)(F)F)c3)cc(N(C)CCO)nc2c1-c1ccc(OC)cc1` [Example 257], the negative logarithm of the IC50 (pIC50) was 7.85.

Take `COCc1nn2c(-c3ccc(F)cc3)cc(N(C)CCO)nc2c1-c1ccc(Cl)cc1` [Example 260]: the negative logarithm of the IC50 (pIC50) is 8.15.

On to `COCc1nn2c(-c3cccc(F)c3)cc(N(C)CCO)nc2c1-c1ccc(Cl)cc1` [Example 261], for which the negative logarithm of the IC50 (pIC50) was 8.05.

As for `COCc1nn2c(-c3cccc(C)c3)cc(N(C)CCO)nc2c1-c1ccc(Cl)cc1` [Example 262], the pIC50 is 7.74.

On to `CCOCc1nn2c(-c3ccc(F)cc3)cc(NCCO)nc2c1-c1ccc(C)cc1` [Example 263, 2-[2-ethoxymethyl-7-(4-fluorophenyl)-3-(4-methylphenyl)-pyrazolo[1,5-a]pyrimidin-5-yl-amino]ethanol], for which the negative-log IC50 (pIC50) is 7.05.

Consider `CCOCc1nn2c(-c3cccc(OC)c3)cc(NCCO)nc2c1-c1ccc2c(c1)OCO2` [Example 268], for which the pIC50 is 6.52.

With `Cc1ccc(-c2cnn3c(-c4ccc(F)cc4)cc(N4CCC[C@H]4CO)nc23)cc1` [Example 269, (S)-(1-(3-(4-methylphenyl)-7-(4-fluorophenyl)-pyrazolo[1,5-a]pyrimidin-5-yl)pyrrolidin-2-yl)methanol], the pIC50 was 6.35.

As to `Cc1ccc(-c2cnn3c(-c4cccc(F)c4)cc(N4CCC[C@H]4CO)nc23)cc1` [Example 270], the negative-log IC50 (pIC50) was 6.36.

In the case of `Cc1ccc(-c2cnn3c(-c4ccc(F)c(F)c4)cc(N4CCC[C@H]4CO)nc23)cc1` [Example 272], the negative logarithm of the IC50 (pIC50) is 6.16.

In the case of `Cc1ccc(-c2cnn3c(-c4cc(F)cc(F)c4)cc(N4CCC[C@H]4CO)nc23)cc1` [Example 273], the negative logarithm of the IC50 (pIC50) is 6.64.

Turning to `OC[C@@H]1CCCN1c1cc(-c2cccc(C(F)(F)F)c2)n2ncc(-c3ccc(F)cc3)c2n1` [Example 276], the negative logarithm of the IC50 (pIC50) is 6.47.

With `CCCCc1nn2c(-c3cccc(C(F)(F)F)c3)cc(N3CCC[C@H]3CO)nc2c1-c1ccc(C)cc1` [Example 288], the negative-log IC50 (pIC50) was 8.10.

`CCCCc1nn2c(-c3cccc(C)c3)cc(N3CCC[C@H]3CO)nc2c1-c1ccc(C)cc1` [Example 289]: the negative-log IC50 (pIC50) was 7.52.

Still in this assay, the particulars now being: compound at 1 μM; calcium ion influx in Chem-1 cells expressing human CB1, 1 μM R-(+)-WIN55212-2.
As for `COCc1nn2c(-c3ccc(F)cc3)cc(N3CCC[C@@H]3CO)nc2c1-c1ccc(OC)cc1` [Example 306], the inhibition at 1 µM was less than 5%.

The same assay, now with this note: compound at 3 μM; calcium ion influx in Chem-1 cells expressing human CB1, 1 μM R-(+)-WIN55212-2.
In the case of `Cc1nn2c(-c3ccccc3)cc(N3CCC[C@@H]3CO)nc2c1-c1ccc(Cl)cc1` [Example 305], the inhibition at 3 µM is approximately 5%.
